Laboratory results published in patent publication US11142796B2, “MIR-18B for use as a marker of cancer progression and target for therapies to treat cancer” (SUTTER WEST BAY HOSPITALS, priority 2012, dated 2021).
Entries after “also recorded” stand apart in the source; their conditions may differ.

Experiments:
miR-18b expression = miR-18b expression by miR qRT-PCR in drug-treated melanoma cells; format: cell-based, human
Source text: The DO4, WM3211, 1205-Lu, C8161.9, WM278 and Lox melanoma cell lines were obtained and propagated as described in Dar et al., J Biol Chem 286:16606-14 (2011). Normal human melanocytes (HEM) were purchased from Lifeline cell technology and grown in LL-0027 media (Lifeline cell technology, Walkersville Md.). Plasmids miRNASelect™ pEP-miR Null control vector (pEP Null), miRNASelect™ pEP-hsa-mir-18b expression vector (pEP miR-18b) (Cell Biolabs Inc, San Diego Calif.) were purchased. TaqMan probes for hsa-miR-18b and negative control pre-miR (cont. miR) were purchased from Applied Biosystems (Foster City, Calif.). Sub-confluent cells (60-70% confluent) were treated with 5-AZA-2′-deoxycytidine (5AZA) (Sigma Aldrich, St. Louis Mo.) dissolved in dimethyl-sulfoxide. Cells treated with vehicle served as control. Transient transfections were carried out by Lipofectamine-2000 (Invitrogen Life Technologies, Carlsbad, Calif.) following the manufacturer's protocol.
Mature miRNAs and other mRNAs were assayed using the TaqMan MicroRNA Assays and Gene Expression Assays (Applied Biosystems), respectively, as previously described in Dar et al., J Biol Chem 286:16606-14 (2011).

1205-Lu cells [1] = test: Cell cycle analysis (flow cytometry), 1205-Lu; format: cell-based, human
Protocol: (§1) Cell viability, colony formation and flow cytometry analysis were performed as described previously in Dar et al., J Biol Chem 286:16606-14 (2011); and Dar et al., J Invest Dermatol 130:2071-9 (2010)).

LOX human melanoma cells [2] = test: Cell proliferation, LOX; format: cell-based; conditions: LOX cells transfected with miR-18b
Protocol: as §1

1205-Lu melanoma cells [3] = test: Migration assay (boyden chamber); format: cell-based, human; conditions: miR-18b over-expression; vs cont.miR
Protocol: (§2) For 1205-Lu cells boyden chamber inserts were coated with 15 μl matrigel at 6 mg/ml protein. For migration assay boyden chamber inserts were not coated and cells were directly added to them.

1205-Lu cells [4] = test: Colony formation assay, 1205-Lu; format: cell-based, human
Protocol: as §1

LOX human melanoma cells [5] = test: Cell cycle analysis, LOX; format: cell-based; conditions: LOX cells transfected with miR-18b
Protocol: as §1

[6] = tested on: C8161.9 melanoma cell lines; test: Cell survival, MDM2 and p53 expression in mutant p53 cells; format: cell-based, human; conditions: C8161.9 cells harboring mutant p53
Protocol: as §1
(§3) Cell lysates were prepared in PBS containing 1×Halt protease inhibitor cocktail and 1×Halt phosphatase inhibitor cocktail (Pierce, Rockford, Ill.) centrifuged at 3500 r.p.m. for 10 min at 4° C. Proteins (10-15 ug) from each sample were subjected to SDS/polyacrylamide gel electrophoresis (PAGE) and transferred onto a nitrocellulose membrane. Target proteins were detected by using specific antibodies against MDM2, p53, p21, BCL-2 and GAPDH (Santa Cruz Biotechnology, Santa Cruz, Calif.), and PUMA, BCL-XL (Cell Signaling Technology, Danvers, Mass.).

3′UTR of MDM2 = test: Luciferase reporter assay with MDM2-3′UTR; format: cell-based, human
Source text: The 3′-UTR region of MDM2 containing target site sequences complementary to the seed sequence of miR-18b were cloned downstream of the luciferase gene in the pMIR-REPORT luciferase vector (Ambion, Cambridge Mass.), and the resultant vectors were named MDM2-3′UTR. Mutated 3′UTR sequences of MDM2 complementary to miR-18b were cloned in the same vector and the resultant vectors named MDM2-Mut 3′UTR. For reporter assays, cells were transiently transfected with wild-type or mutant reporter plasmid and miR-18b. Firefly luciferase activities were measured by using the Dual Luciferase Assay (Promega, Madison, Wis.) 48 hr after transfection and the results were normalized with Renilla luciferase. Each reporter plasmid was transfected at least three times (on different days) and each sample was assayed in triplicate.

[7] = tested on: E-cadherin, vimentin, N-cadherin and slug; test: EMT markers by immunofluorescence and Western blot; format: cell-based, human; conditions: miR-18b overexpression in 1205-Lu
Protocol: as §3
1205-Lu cells were plated in 8-well plate chamber. Immunofluorescence assay was performed as previously described in Dar et al., Oncogene 28: 866-75 (2009). N-cadherin, vimentin, slug and E-cadherin antibodies (Cell signaling) were used in the assay.

[8] = tested on: MDM2 (and the p53 pathway); test: Western blot analysis of MDM2 and p53 pathway proteins; format: cell-based, human
Protocol: as §3

LOX human melanoma cells [9] = test: Apoptosis assay, LOX; format: cell-based; conditions: LOX cells transfected with miR-18b
Protocol: as §1

LOX human melanoma cells [10] = test: Colony formation, LOX; format: cell-based; conditions: LOX cells transfected with miR-18b
Protocol: as §1

1205-Lu melanoma cells [11] = test: Invasion assay (matrigel-coated boyden chamber); format: cell-based, human; conditions: miR-18b over-expression; vs cont.miR
Protocol: as §2

1205-Lu cells [12] = test: Cell proliferation / viability, 1205-Lu; format: cell-based, human
Protocol: as §1

1205-Lu cells [13] = test: Apoptosis assay, 1205-Lu; format: cell-based, human
Protocol: as §1

chromatin modifications = test: Chromatin immunoprecipitation analysis after miR-18b overexpression; format: cell-based, human
Protocol: Chromatin immunoprecipitation analysis was performed using the EZ-ChIP kit (Upstate Biotechnology, Charlottesville, Va.) according to the manufacturer's directions and as described in Majid et al., Carcinogenesis 30: 662-70 (2009). Antibodies used in the immunoprecipitations were purchased from Upstate Biotechnology and Ambion (Austin, Tex.) and were specific for acetyl histone H3 (06-599), acetyl histone H4 (06-866), dimethyl-histone H3 lysine 4 (07-030), trimethyl-histone H3 lysine 4(07-473), dimethyl-histone H3 lysine 9 (07-441) and trimethyl-histone H3 lysine 9 (ab8898). The immunoprecipitated DNA was eluted in a total volume of 50 μl and 2 μl were used for PCR.

1205-Lu cells [14] = test: Subcutaneous tumor growth of 1205-Lu cells stably expressing miR-18b; format: in vivo, nude mice
Protocol: 1205-Lu cells were transfected with pEP Null or pEP miR-18b vectors (Cellbiolabs, San Diego Calif.) and selected with puromycin (1 μg/mL). For in-vivo studies as described previously in Dar et al., J Invest Dermatol 130:2071-9 (2010), 1×10^6 cells were injected into nude mice subcutaneously and tumor growth was followed for 24 days. All animal care was in accordance with the institutional guidelines.

[15] = stable expression of miR-18b, vs control vector
[16] = transient transfection, vs cont.miR
[17] = 1205-Lu co-transfection with empty vector or MDM2-expressing vector
[18] = 1205-Lu stably overexpressing miR-18b
[19] = transient miR-18b overexpression

Question: For `Nc1ncn([C@H]2C[C@H](O)[C@@H](CO)O2)c(=O)n1` [5AZA, 5-AZA-2′-deoxycytidine], which miR-18b expression (miR-18b expression; five melanoma cell lines (C8161.9, LOX, 1205-Lu, DO4, WM278), 5AZA 5 μM, vs vehicle) is on record?
Answer: significant upregulation

Question: Which miR-18b expression (miR-18b expression; 1205-Lu cells, 2 nM cisplatin for 48 hr, vs vehicle-treated cells) does the source give for `N.N.[Cl][Pt][Cl]` [cisplatin] here?
Answer: significantly upregulated

Question: And the miR-18b expression (miR-18b expression; 1205-Lu cells, 2 nM cisplatin for 48 hr, vs vehicle-treated cells, listed as Cisplatin)?
Answer: induced expression of miR-18b

Question: Which “cells in S-phase” value (1205-Lu cells [1]; [15]) does the source give for “miR-18b: microRNA, mature miR-18b-5p UAAGGUGCAUCUAGUGCAGUUAG (SEQ ID NO:1); transfected or stably expressed from pEP-hsa-mir-18b expression vector (listed as Homo sapiens)” here?
Answer: significant decreases

Question: What about the “cells in S-phase” value (1205-Lu cells [1]; transient overexpression, cont.miR 15.5%, p<0.02) of the same molecule?
Answer: 8.05%

Question: And the cell proliferation (LOX human melanoma cells [2])?
Answer: significant decrease

Question: What about the migratory ability (1205-Lu melanoma cells [3]) of the same molecule?
Answer: significantly suppressed

Question: And the colony formation (1205-Lu cells [4]; [15])?
Answer: significant decreases

Question: And the colony formation ability (1205-Lu cells [4]; [16])?
Answer: low colony formation ability

Question: What about the S-phase (LOX human melanoma cells [5]) of the same molecule?
Answer: significant decrease

Question: And the “cell survival, MDM2 and p53 expression levels” value [6]?
Answer: no effect

Question: And the “reporter activity, mutant 3′UTR” value (3′UTR of MDM2; MDM2-Mut 3′UTR, 1205-Lu and LOX cells)?
Answer: no effect

Question: What about the “reporter expression, MDM2-3′UTR construct” value (3′UTR of MDM2; transient co-transfection into 1205-Lu and LOX cells, 48 hr, vs control vector) of the same molecule?
Answer: significant decrease

Question: And the “epithelial biomarker E-cadherin” value [7]?
Answer: significant upregulation

Question: And the “mesenchymal markers vimentin, N-cadherin and slug” value [7]?
Answer: reduced

Question: And the “gene expression (MDM2, p53 pathway)” value [8, 17]?
Answer: suppression of MDM2, activation of the p53 pathway

Question: What about the MDM2 expression [8, 18] of the same molecule?
Answer: significantly downregulated

Question: And the “expression of p53 and PUMA” value [8, 18]?
Answer: concomitant increase

Question: And the p14ARF expression ([8]; following miR-18b overexpression)?
Answer: unchanged

Question: What about the “MDM2 at the protein level” value [8, 19] of the same molecule?
Answer: significantly suppressed

Question: And the “anti-apoptotic genes BCL2 and BCL-XL” value [8, 19]?
Answer: downregulation

Question: And the “pro-apoptotic genes p53 and PUMA” value [8, 19]?
Answer: concomitant upregulation

Question: And the apoptosis (LOX human melanoma cells [9])?
Answer: increase

Question: And the colony formation (LOX human melanoma cells [10])?
Answer: significant decrease

Question: And the invasiveness (1205-Lu melanoma cells [11])?
Answer: significantly suppressed

Question: And the melanoma cell survival (1205-Lu cells [12]; [17])?
Answer: suppressed melanoma cell survival

Question: What about the “cell proliferation with BRAF inhibitor” value (1205-Lu cells [12]; 1205-Lu transfected with miR-18b vs Neg-miR, treated with dabrafenib, 48 hrs) of the same molecule?
Answer: sensitized melanoma cell lines to BRAF specific inhibitor; also recorded: additive effect

Question: And the “sensitivity to cisplatin cytotoxicity” value (1205-Lu cells [12]; melanoma cells treated with miR-18b)?
Answer: enhanced sensitivity

Question: What about the cell proliferation (1205-Lu cells [12]; [15]) of the same molecule?
Answer: significantly suppressed

Question: And the “cell proliferation over time” value (1205-Lu cells [12]; [16])?
Answer: significantly decreased

Question: What about the apoptotic index (1205-Lu cells [13]; stable expression of miR-18b) of the same molecule?
Answer: significant increase

Question: What about the apoptosis (1205-Lu cells [13]; transient overexpression, cont.miR 2.87%, p<0.01) of the same molecule?
Answer: 11.30%

Question: What about the “active chromatin modifications (acetylated histones H3, H4 and H3 di-methylated lysine 4)” value (chromatin modifications) of the same molecule?
Answer: enrichment

Question: What about the “repressive chromatin modifications (2H3K9 and 3H3K9)” value (chromatin modifications) of the same molecule?
Answer: suppression

Question: And the “tumor growth in vivo” value (1205-Lu cells [14]; subcutaneous inoculation into nude mice, followed for 24 days, vs control vector cells)?
Answer: significantly suppressed

Question: What about the “MDM2 at the protein level in tumors” value (1205-Lu cells [14]; subcutaneous tumors, vs control tumors) of the same molecule?
Answer: suppressed
